The target in the assay is LSD1 (Homo sapiens, UniProt O60341). As to the kind of experiment: LSD1 fluorescence coupling enzyme assay (HRP/Amplex Red, H3(1-21)K4me2 peptide), 10-dose IC50. It counts as biochemical. The conditions noted are these: 10 μM histone H3(1-21)K4me2 peptide substrate, 3-fold serial dilution from 100 μM. From the text:
Assaying the inhibition of KDM1A can be determined in vitro, in cultured cells, and in animals. There are a variety of spectrophotometric methods to detect the results of demethylation of methylated lysines, viz., detecting the products of KDM1A demethylase oxidative activity on a peptide fragment of at least 18 amino acids representing the N-terminus of the histone H3 substrate that contains a monomethyl at the fourth lysine residue. Hydrogen peroxide, one product of the KDM1A demethylase reaction, reacts with horseradish peroxidase and dihydroxyphenoxazine (ADHP) to produce the fluorescent compound resorufin (excitation=530-560 nm: emission=590 nm). The KDM1A demethylase enzyme activity can be obtained from mammalian cells or tissues expressing KDM1A from an endogenous or recombinant gene and purified or assayed from a whole cell extract. These methods can be used to determine the concentration of the disclosed compounds can inhibit fifty percent of the enzyme activity (IC50).
Alternatively, the production of H2O2 during the KDM1A reaction can be detected fluometrically. In this system, the production of H2O2 is detected in the HDM assay buffer after exposure to substrate, co-factor and enzyme using ADHP (10-Acetyl-3, 7-dihydroxyphenoxazine) as a fluorogenic substrate for horse radish peroxidase (HRP). […] The florescent product is resorufin. Sensitivity can be as low as 10-15 M of target protein. The signal is read using a fluorescence microplate reader at excitation and emission wavelengths of 530-560 nm and 590 nm, respectively.
Compounds were tested in a 10-dose IC50 mode fluorescence coupling enzyme assay with 3-fold serial dilution in duplicate starting at 100 μM. The production of FAD-dependent H2O2 as a result of demethylase activity of LSD1 on 10 μM histone H3(1-21)K4me2 peptide substrate was measured by coupling with HRP and Amplex Red to yield resorufin (fluorescence measured at Ex/Em=535/590 nm on EnVision, Perkin Elmer).

In general, IC50 refers to the concentration at which inhibition is half-maximal.

On to `COC1CCN(c2cccc(-n3nc(NC[C@H]4CCC[C@H](N)C4)cc3-c3ccc(C#N)c(F)c3)c2)CC1` [Example 118, 4-(3-((((1S,3S)-3-aminocyclohexyl)methyl)amino)-1-(3-(4-methoxypiperidin-1-yl)phenyl)-1H-pyrazol-5-yl)-2-fluorobenzonitrile 2,2,2-trifluoroacetate], for which the IC50 lay within 1000 to 10000 nM.
With `CC(C)OC1CCN(c2ccc(-n3nc(NC[C@H]4CCC[C@H](N)C4)cc3-c3ccc(C#N)c(F)c3)cc2)CC1` [Example 94, 4-(3-((((1S,3S)-3-aminocyclohexyl)methyl)amino)-1-(4-(4-isopropoxypiperidin-1-yl)phenyl)-1H-pyrazol-5-yl)-2-fluorobenzonitrile 2,2,2-trifluoroacetate], the IC50 was < 500 nM.
The same measure for `COc1ccc(-n2nc(NC[C@@H]3CCC[C@H](CN)C3)cc2-c2ccc(C#N)c(F)c2)cc1` [Example 79, 4-(3-((((1R,3S)-3-(aminomethyl)cyclohexyl)methyl)amino)-1-(4-methoxyphenyl)-1H-pyrazol-5-yl)-2-fluorobenzonitrile]: 1000 to 10000 nM.
In the case of `COC1CCN(c2ccc(-n3nc(NC[C@H]4CCC[C@H](N)C4)cc3-c3ccc(C#N)c(F)c3)nc2)CC1` [Example 120, 4-(3-((((1S,3S)-3-aminocyclohexyl)methyl)amino)-1-(5-(4-methoxypiperidin-1-yl)pyridin-2-yl)-1H-pyrazol-5-yl)-2-fluorobenzonitrile 2,2,2-trifluoroacetate], the IC50 is < 500 nM.
For `N#Cc1ccc(-c2cc(NCC34CCN(CC3)CC4)nn2-c2ccc(N3CC4CC3CS4(=O)=O)cc2)cc1F` (stereo not shown) [Example 121, 4-(1-(4-(2,2-Dioxido-2-thia-5-azabicyclo[2.2.1]heptan-5-yl)phenyl)-3-((quinuclidin-4-ylmethyl)amino)-1H-pyrazol-5-yl)-2-fluorobenzonitrile 2,2,2-trifluoroacetate], the 50% inhibitory concentration (IC50) is < 500 nM.
Take `N#Cc1ccc(-c2cc(NC[C@H]3CCC[C@H](N)C3)nn2-c2ccc(N3CCNC(=O)C3)cc2)cc1F` [Example 104, 4-(3-((((1S,3S)-3-aminocyclohexyl)methyl)amino)-1-(4-(3-oxopiperazin-1-yl)phenyl)-1H-pyrazol-5-yl)-2-fluorobenzonitrile]: the IC50 was < 500 nM.
`COc1cc(N2CCS(=O)(=O)CC2)ccc1-n1nc(NC[C@@H]2CCCNCC2)cc1-c1ccc(C#N)c(F)c1` [Example 113, (R)-4-(3-((azepan-4-ylmethyl)amino)-1-(4-(1,1-dioxidothiomorpholino)-2-methoxyphenyl)-1H-pyrazol-5-yl)-2-fluorobenzonitrile 2,2,2-trifluoroacetate]: the IC50 was < 500 nM.
In the case of `N#Cc1ccc(-c2cc(NC[C@H]3CCC[C@H](N)C3)nn2-c2ccc(N3CCC4(CCCO4)CC3)cc2)cc1F` [Example 95, 4-(1-(4-(1-Oxa-8-azaspiro[4.5]decan-8-yl)phenyl)-3-((((1S,3S)-3-aminocyclohexyl)methyl)amino)-1H-pyrazol-5-yl)-2-fluorobenzonitrile 2,2,2-trifluoroacetate], the IC50 is < 500 nM.
On to `COc1cc(N2CCS(=O)(=O)CC2)ccc1-n1nc(NC[C@H]2CCCNCC2)cc1-c1ccc(C#N)c(F)c1` [Example 112, (S)-4-(3-((azepan-4-ylmethyl)amino)-1-(4-(1,1-dioxidothiomorpholino)-2-methoxyphenyl)-1H-pyrazol-5-yl)-2-fluorobenzonitrile 2,2,2-trifluoroacetate], for which the IC50 was < 500 nM.
In the case of `CC(C)Oc1cc(N2CCS(=O)(=O)CC2)ccc1-n1nc(NCC23CCN(CC2)CC3)cc1-c1ccc(C#N)c(F)c1` [Example 122, 4-(1-(4-(1,1-Dioxidothiomorpholino)-2-isopropoxyphenyl)-3-((quinuclidin-4-ylmethyl)amino)-1H-pyrazol-5-yl)-2-fluorobenzonitrile 2,2,2-trifluoroacetate], the IC50 lay within 1000 to 10000 nM.

The values above are taken from patent US20250032454A1, “KDM1A INHIBITORS FOR THE TREATMENT OF DISEASE” (Imago Biosciences, Inc., priority 2021, published 2025).
